Earlier results as cited in patent US20050214675A1, “Positive-type photosensitive composition” (FUJI PHOTO FILM CO., LTD., priority 2004, published 2005).
Where two headings read alike, the source gives them in different places.

Conditions: for Hammett value: cation of the sulfonium salt used in the plate, third embodiment Tables 1 to 4; for σ (sum of Hammett values of substituents on the aryl skeletons of the cation): o-position treated as p-position
[1] = compound list of first embodiment
[2] = compound list of second embodiment

Structure (SMILES) | Hammett value | σ (sum of Hammett values of substituents on the aryl skeletons of the cation) [1] | σ (sum of Hammett values of substituents on the aryl skeletons of the cation) [2]
O=C(O)c1c2ccccc2cc2ccccc12 [(28)] | 0 | – | –
O=S(=O)(O)c1ccc(O)cc1 [(68)] | 0.69 | – | –
O=Cc1ccccc1S(=O)(=O)O [(72)] | 0.69 | – | –
COC(=O)c1cc(C(=O)OC)cc(S(=O)(=O)O)c1 [(75)] | 0.69 | – | –
O=C(O)c1cc(C(=O)O)cc(S(=O)(=O)O)c1 [(76)] | 0.69 | – | –
COc1cc(O)c(C(=O)c2ccccc2)cc1S(=O)(=O)O [(77)] | 0.69 | – | –
Cc1ccc([S+](c2ccc(Cl)cc2)c2ccc(Cl)cc2)cc1 [(84)] | – | 0.29 | 0.29
CC(C)(C)c1ccc([S+](c2ccc(Cl)cc2)c2ccc(Cl)cc2)cc1 [(85)] | – | 0.26 | 0.26
CC(C)(C)c1ccc([S+](c2ccc(C(C)(C)C)cc2)c2ccc(C(C)(C)C)cc2)cc1 [(86)] | – | −0.59 | −0.59
Fc1ccc([S+](c2ccc(F)cc2)c2ccc(F)cc2)cc1 [(87)] | – | 0.186 | 0.186
COc1ccc([S+](c2ccc(OC)cc2)c2ccc(OC)cc2)cc1 [(88)] | – | −0.804 | −0.804
Cc1ccc([S+](c2ccc(C)cc2)c2cc(C)c(O)c(C)c2)cc1 [(89)] | – | −0.848 | −0.848
